target: T1, human orexin-2 (hOX2) receptors (Homo sapiens, UniProt O43614); experiment: Intracellular Ca2+ mobilization assay (FLIPR), antagonism of orexin-A; type: cell-based; conditions: CHO(dHFr-) cells stably expressing hOX2; orexin-A at EC80 as agonist; antagonist applied 25 min before; Kb=IC50/(1+[A]/EC50); read-out: Kb (μM) OX2R (human)
T1 construct: expressed in transfected cells
T1 sequence (O43614 1-444): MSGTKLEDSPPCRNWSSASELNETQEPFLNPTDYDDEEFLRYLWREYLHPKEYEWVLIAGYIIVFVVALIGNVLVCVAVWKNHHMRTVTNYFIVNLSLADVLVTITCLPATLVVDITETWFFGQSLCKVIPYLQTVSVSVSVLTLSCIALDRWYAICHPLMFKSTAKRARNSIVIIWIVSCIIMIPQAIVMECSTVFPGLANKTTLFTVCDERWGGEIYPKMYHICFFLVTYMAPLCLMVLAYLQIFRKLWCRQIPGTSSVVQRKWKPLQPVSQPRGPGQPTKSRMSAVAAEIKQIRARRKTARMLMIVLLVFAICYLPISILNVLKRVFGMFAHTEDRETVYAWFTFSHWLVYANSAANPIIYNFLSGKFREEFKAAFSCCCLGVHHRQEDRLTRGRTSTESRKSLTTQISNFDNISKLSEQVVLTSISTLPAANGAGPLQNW
Description: Intracellular Ca^2+ Mobilization Assay
The Chinese Hamster Ovary (dHFr—) mutant cell line stably expressing human orexin-1 (hOX1) or human orexin-2 (hOX2) receptors were maintained in Dulbecco's Modified Eagle Medium (1X) with GlutaMax™ 1, 4500 mg/L D-Glucose and Sodium Pyruvate (Catalog No. 31966-021, Invitrogen, Carlsbad, Calif.), 5% dialyzed fetal calf serum (Catalog No. 26400-044), 100 μg/ml penicillin and 100 μg/ml streptomycin. The cells were seeded at 5×10^4 cells/well in the poly-D-lysine treated, 96-well, black/clear-bottomed plates (Catalog No. BD356640, BD Biosciences, Palo Alto, Calif.). 24 h later, the cells were loaded for 1 h at 37° C. with 4 μM Flou-4 acetoxymethyl ester (Catalog No. F-14202, Molecular Probes, Eugene, Oreg.) in FLIPR buffer (1×HBSS, 20 mM HEPES, 2.5 mM Probenecid). Hanks' Balanced Salt Solution (HBSS) (10×) (catalog No. 14065-049) and HEPES (1M) (catalog No. 15630-056) were purchased from Invitrogen, Carlsbad, Calif. Probenecid (250 mM) (catalog No. P8761) was from Sigma, Buchs, Switzerland. The cells were washed five times with FLIPR buffer to remove excess dye and intracellular calcium mobilization, [Ca^2+]i were measured using a Fluorometric Imaging Plate Reader (FLIPR-96, Molecular Devices, Menlo Park, Calif.) as described previously (Malherbe et al., Mol. Pharmacol., 64, 823-832, 2003). Orexin A (catalog No. 1455, Toris Cookson Ltd, Bristol, UK) was used as agonist. Orexin A (50 mM stock solution in DMSO) was diluted in FLIPR buffer +0.1% BSA. The EC50 and EC80 values of orexin-A were measured daily from standard agonist concentration-response curves in CHO(dHFr—)—OX1R and —OX2R cell lines. All compounds were dissolved in 100% DMSO. Inhibition curves were determined by addition of 11 concentrations (0.0001-10 μM) of inhibitory compounds and using EC80 value of orexin-A as agonist (a concentration which gave 80% of max agonist response, determined daily). The antagonists were applied 25 min (incubation at 37° C.) before the application of the agonist. Responses were measured as peak increase in fluorescence minus basal, normalized to the maximal stimulatory effect induced by EC80 value of orexin-A or orexin- B. Inhibition curves were fitted according to the Hill equation: y=100/(1+(x/IC50)^nH), where nH=slope factor using Excel-fit 4 software (Microsoft). Kb values were calculated according to the following equation Kb=IC50/(1+[A]/EC50) where A is the concentration of agonist added which is very close to agonist EC80 value, and IC50 and EC50 values were derived from the antagonist inhibition and orexin-A or B agonist curves, respectively.

Structure (SMILES) | Kb [µM]
COc1cc(N(CCc2ccc(C(F)(F)F)cn2)C(=O)C(O)c2ccc(F)cc2)ccc1Cl (racemic) [Example 79, (R,S)—N-(4-Chloro-3-methoxy-phenyl)-2-(4-fluoro-phenyl)-2-hydroxy-N-[2-(5-trifluoromethyl-pyridin-2-yl)-ethyl]-acetamide] | 0.0236
Cc1ccc(N(CCc2ccc(C(F)(F)F)nc2)C(=O)[C@@H](NC2COC2)c2ccccc2)cc1C [Example 57, (S)—N-(3,4-Dimethyl-phenyl)-2-(oxetan-3-ylamino)-2-phenyl-N-[2-(6-trifluoromethyl-pyridin-3-yl)-ethyl]-acetamide] | 0.0016
Cc1ccc(N(CCc2ccc(C(F)(F)F)nc2)C(=O)C(=O)c2ccccc2)cc1C [Example 20, N-(3,4-Dimethyl-phenyl)-2-oxo-2-phenyl-N-[2-(6-trifluoromethyl-pyridin-3-yl)-ethyl]-acetamide] | 0.0916
Cc1ccc(N(CCc2ccc(C(F)(F)F)nc2)C(=O)[C@@H](N)c2ccc(F)cc2)cc1C [Example 10, (S)-2-Amino-N-(3,4-dimethyl-phenyl)-2-(4-fluoro-phenyl)-N-[2-(6-trifluoromethyl-pyridin-3-yl)-ethyl]-acetamide] | 0.0014
Cn1ccc2ccc(N(CCc3ccc(C(F)(F)F)cn3)C(=O)C(O)c3ccc(F)cc3)cc21 (racemic) [Example 54, (R,S)-2-(4-Fluoro-phenyl)-2-hydroxy-N-(1-methyl-1H-indol-6-yl)-N-[2-(5-trifluoromethyl-pyridin-2-yl)-ethyl]-acetamide] | 0.0078
Cc1ccc(N(CCc2ccc(C(F)(F)F)nc2)C(=O)[C@@H](N)c2ccccc2)cc1C [Example 1, (S)-2-Amino-N-(3,4-dimethyl-phenyl)-2-phenyl-N-[2-(6-trifluoromethyl-pyridin-3-yl)-ethyl]-acetamide] | 0.0007
Cc1ccc(N(CCc2ccc(Cl)cn2)C(=O)[C@@H](O)c2ccccc2)cc1C [Example 66, (S)—N-[2-(5-Chloro-pyridin-2-yl)-ethyl]-N-(3,4-dimethyl-phenyl)-2-hydroxy-2-phenyl-acetamide] | 0.0057

The next lines start with the values.

Kb [µM] | Structure (SMILES)
0.0863 | Cc1cc(CCN(C(=O)[C@@H](O)c2ccccc2)c2ccc(C)c(C)c2)on1 [Example 70, (S)—N-(3,4-Dimethyl-phenyl)-2-hydroxy-N-[2-(3-methyl-isoxazol-5-yl)-ethyl]-2-phenyl-acetamide]
0.0025 | Cc1ccc(N(CCc2ccc(C(F)(F)F)nc2)C(=O)[C@@H](O)c2ccccc2)cc1C [Example 2, (S)—N-(3,4-Dimethyl-phenyl)-2-hydroxy-2-phenyl-N-[2-(6-trifluoromethyl-pyridin-3-yl)-ethyl]-acetamide]
0.0176 | COc1cccc(N(CCc2ccc(C(F)(F)F)nc2)C(=O)[C@@H](O)c2ccccc2)c1 [Example 56, (S)-2-Hydroxy-N-(3-methoxy-phenyl)-2-phenyl-N-[2-(6-trifluoromethyl-pyridin-3-yl)-ethyl]-acetamide]
0.0263 | Cc1ccc(N(CCc2ccc(C(F)(F)F)nc2)C(=O)[C@@H](NC2(CN)COC2)c2ccccc2)cc1C [Example 8, (S)-2-(3-Aminomethyl-oxetan-3-ylamino)-N-(3,4-dimethyl-phenyl)-2-phenyl-N-[2-(6-trifluoromethyl-pyridin-3-yl)-ethyl]acetamide]
0.068 | Cc1ccc(N(CCc2ccc(C(F)(F)F)nc2)C(=O)C(C)(O)c2ccccc2)cc1C (racemic) [Example 27, (R,S)—N-(3,4-Dimethyl-phenyl)-2-hydroxy-2-phenyl-N-[2-(6-trifluoromethyl-pyridin-3-yl)-ethyl]-propionamide]
0.0006 | N[C@H](C(=O)N(CCc1ccc(C(F)(F)F)nc1)c1ccc2c(c1)CCCC2)c1ccccc1 [Example 9, (S)-2-Amino-2-phenyl-N-(5,6,7,8-tetrahydro-naphthalen-2-yl)-N-[2-(6-trifluoromethyl-pyridin-3-yl)-ethyl]-acetamide]

— patent US8133909B2 (Hoffmann-La Roche Inc., priority 2008, dated 2012)
